Measurements taken from patent US20050153872A1, “Methods and compositions for the treatment of infection” (priority 2004, published 2005).
Positions count from the first letter of the chain named. In brackets after ≈: the same amount, converted by molar mass.

Experiments:
[1] = system: S. aureus strain ATCC BAA-42 MRSA; conditions: all agents 5 μg/ml
Enterococcus (20) = assay: In vitro antibacterial activity (MIC), clinical isolates; assay type: cell-based; conditions: 20 Enterococcus clinical isolates
Protocol: (§1) The following experiments were performed by Lab. of Pharmacology, National Sichuan antibiotic industril institute, Chengdu, Sichuan.
(§2) The following agents were used to test the in vitro activity of Ph-SA:
(§3) All the bacterial strains used in the experiments were clinical isolates collected from Sichuan and Beijing in 2002 and identified by West China Hospital, Sichuan University and Chongqing University of Medical Sciences with API system. The following strains were used in the experiments detailed below: Staphylococcus aureus 168 strains (MRSA 80 strains and MSSA 88 strains) Staphylococcus epidermidis 46 strains (MRSE 25 strains and MSSE 21 strains), Enterococcus 20 strains, and Acenetobactor 20 strains. Staphylococcus aureus ATCC25923, 29213 and BAA-42 were used as control strains. Bacterial strains were contacted with one of the above described compounds and MIC50, MIC90 and MICScope were determined.

[2] = system: Staphylococcus epidermidis MRSE strain (25); assay: as above; assay type: cell-based; conditions: Staphylococcus epidermidis, MRSE
Protocol: as §1, §2, §3

[3] = system: Staphylococcus epidermidis MSSE strain (21); assay: as above; assay type: cell-based; conditions: Staphylococcus epidermidis, 21 MSSE clinical isolates
Protocol: as §1, §2, §3

Acenetobactor (20) = assay: as above; assay type: cell-based
Protocol: as §1, §2, §3

[4] = system: Staphylococcus aureus MSSA strain (88); assay: as above; assay type: cell-based; conditions: Staphylococcus aureus, 88 MSSA clinical isolates
Protocol: as §1, §2, §3

[5] = system: Staphylococcus aureus MRSA strain (80); assay: as above; assay type: cell-based; conditions: Staphylococcus aureus, MRSA
Protocol: as §1, §2, §3

[6] = system: ATCC 700671 PRSP (S. pneumoniae); assay: In vivo protection effects of Ph-SP; parameters: species or system mice; conditions: 5 animals
Protocol: To assess the in vivo effect of Ph-SP, mice were injected with ATCC 700671 PRSP intraperitoneally, followed by intravenous injections of PH-SP or controls.
One hour after administration of the fatal dose of ATCC 700671 PRSP (10^5 CFU/ml), each mouse was injected through the tail vein with test agents at three dosages as described in Table 4.

Cc1onc(-c2ccccc2)c1C(=O)N[C@@H]1C(=O)N2[C@@H]1SC(C)(C)[C@@H]2C(=O)O [Oxacillin, oxacillin]
inhibition of growth [1]: did not inhibit the growth | MIC50 (Enterococcus (20); read-out: MIC50): 16 µg/mL (≈ 39.9 µM) | MIC90 (Enterococcus (20); read-out: MIC90): > 128 µg/mL | MIC50 [2]: 64 µg/mL (≈ 159 µM) | MIC90 [2]: > 128 µg/mL | MIC [3]: 0.015 to 0.25 µg/mL (≈ 0.0374 to 0.623 µM) | MIC50 ([3]; read-out: MIC50): 0.03 µg/mL (≈ 0.0747 µM) | MIC90 ([3]; read-out: MIC90): 0.25 µg/mL (≈ 0.623 µM) | MIC50 (Acenetobactor (20)): > 128 µg/mL | MIC90 (Acenetobactor (20)): > 128 µg/mL | MIC (Acenetobactor (20); read-out: MIC Scope): > 128 µg/mL | MIC50 ([4]; read-out: MIC50): 0.125 µg/mL (≈ 0.311 µM) | MIC90 ([4]; read-out: MIC90): 0.125 µg/mL (≈ 0.311 µM) | MIC ([4]; read-out: MIC Scope): 0.015 to 0.25 µg/mL (≈ 0.0374 to 0.623 µM) | MIC50 [5]: > 128 µg/mL | MIC90 [5]: > 128 µg/mL | MIC ([5]; read-out: MIC Scope): 0.5 to 128 µg/mL (≈ 1.25 to 319 µM)

cephalomycin
Death distribution in hours 24 h ([6]; 5 mg/kg tail vein): 3 | Death distribution in hours 48 h ([6]; 5 mg/kg tail vein): 1 | Death distribution in hours 72 h ([6]; 5 mg/kg tail vein): 0 | Death distribution in hours 96 h ([6]; 5 mg/kg tail vein): 0 | Death distribution in hours 120 h ([6]; 5 mg/kg tail vein): 0 | Death distribution in hours 144 h ([6]; 5 mg/kg tail vein): 0 | Death distribution in hours 168 h ([6]; 5 mg/kg tail vein): 0 | Number of Death ([6]; 5 mg/kg tail vein): 4 | Death distribution in hours 24 h ([6]; 10 mg/kg tail vein): 2 | Death distribution in hours 48 h ([6]; 10 mg/kg tail vein): 1 | Death distribution in hours 72 h ([6]; 10 mg/kg tail vein): 0 | Death distribution in hours 96 h ([6]; 10 mg/kg tail vein): 0 | Death distribution in hours 120 h ([6]; 10 mg/kg tail vein): 0 | Death distribution in hours 144 h ([6]; 10 mg/kg tail vein): 0 | Death distribution in hours 168 h ([6]; 10 mg/kg tail vein): 0 | Number of Death ([6]; 10 mg/kg tail vein): 3

B1: Ph-SAR1: the AgrDI pheromone of S. aureus linked to the N-terminus of Colicin Ia (protein)
chain: YSTCDFIMSDPVRITNPGAESLGYDSDGHEIMAVDIYVNPPRVDVFHGTPPAWSSFGNKTIWGGNEWVDDSPTRSDIEKRDKEITAYKNTLSAQQKENENKRTEAGKRLSAAIAAREKDENTLKTLRAGNADAADITRQEFRLLQAELREYGFRTEIAGYDALRLHTESRMLFADADSLRISPREARSLIEQAEKRQKDAQNADKKAADMLAEYERRKGILDTRLSELEKNGGAALAVLDAQQARLLGQQTRNDRAISEARNKLSSVTESLNTARNALTRAEQQLTQQKNTPDGKTIVSPEKFPGRSSTNHSIVVSGDPRFAGTIKITTSAVIDNRANLNYLLSHSGLDYKRNILNDRNPVVTEDVEGDKKIYNAEVAEWDKLRQRLLDARNKITSAESAVNSARNNLSARTNEQKHANDALNALLKEKENIRNQLSGINQKIAEEKRKQDELKATKDAINFTTEFLKSVSEKYGAKAEQLAREMAGQAKGKKIRNVEEALKTYEKYRADINKKINAKDRAAIAAALESVKLSDISSNLNRFSRGLGYAGKFTSLADWITEFGKAVRTENWRPLFVKTETIIAGNAATALVALVFSILTGSALGIIGYGLLMAVTGALIDESLVEKANKFWGI
modifications: Pheromone peptide from Staphylococcus aureus AgrDI attached to Colicin Ia
inhibition of growth [1]: did not inhibit the growth

B2: Ph-SA4: Colicin Ia linked to the AgrDIV pheromone of S. aureus (protein)
chain: SDPVRITNPGAESLGYDSDGHEIMAVDIYVNPPRVDVFHGTPPAWSSFGNKTIWGGNEWVDDSPTRSDIEKRDKEITAYKNTLSAQQKENENKRTEAGKRLSAAIAAREKDENTLKTLRAGNADAADITRQEFRLLQAELREYGFRTEIAGYDALRLHTESRMLFADADSLRISPREARSLIEQAEKRQKDAQNADKKAADMLAEYERRKGILDTRLSELEKNGGAALAVLDAQQARLLGQQTRNDRAISEARNKLSSVTESLNTARNALTRAEQQLTQQKNTPDGKTIVSPEKFPGRSSTNHSIVVSGDPRFAGTIKITTSAVIDNRANLNYLLSHSGLDYKRNILNDRNPVVTEDVEGDKKIYNAEVAEWDKLRQRLLDARNKITSAESAVNSARNNLSARTNEQKHANDALNALLKEKENIRNQLSGINQKIAEEKRKQDELKATKDAINFTTEFLKSVSEKYGAKAEQLAREMAGQAKGKKIRNVEEALKTYEKYRADINKKINAKDRAAIAAALESVKLSDISSNLNRFSRGLGYAGKFTSLADWITEFGKAVRTENWRPLFVKTETIIAGNAATALVALVFSILTGSALGIIGYGLLMAVTGALIDESLVEKANKFWGIYSTCYFIM
modifications: Colicin attached to Pheromone peptide encoding Staphylococcus aureus AgrDIV
inhibition of growth [1]: best inhibitory effects

B3: Ph-SE: Colicin Ia linked to the pheromone of S. epidermidis (protein)
chain: SDPVARGITNPGAESLGYDSDGHEIMAVASPIYVASNPPRVASPVFHGTPPAWSSFGNKTIWGGNEWVASPDSPTRSDIEKRDKEITAYKNTLSAQQKENENKRTEAGKRLSAAIAAREKDENTLKTLRAGNADAADITRQEFRLLQAELREYGFRTEIAGYDALRLHTESRMLFADADSLRISPREARSLIEQAEKRQKDAQNADKKAADMLAEYERRKGILDTRLSELEKNGGAALAVLDAQQARLLGQQTRNDRAISEARNKLSSVTESLNTARNALTRAEQQLTQQKNTPDGKTIVSPEKFPGRSSTNHSIVVSGDPRFAGTIKITTSAVIDNRANLNYLLSHSGLDYKRNILNDRNPVVTEDVEGDKKIYNAEVALAEWDKLRQRLLDARNKITSAESAVASNSARNNLSARTNEQKHANDALNALLKEKENIRNQLSGINQKIAEEKRKQDELKATKDAINFTTEFLKSVSEKYGAKAEQLAREMAGQAKGKKIRNVEEALKTYEKYRADINKKINAKDRAAIAAALESVKLSDISSNLNRFSRGLGYAGKFTSLADWITEFGKAVARGTENWRPLFVKTETIIAGNAATALVALALVFSILTGSALGIIGYGLLMAVTGALIDESLVEKANKFWGIDSVCASYF
modifications: Colicin Ia attached to Pheromone peptide from Staphylococcus epidermidis
inhibition of growth [1]: better effects

B4: Ph-SA2: Colicin Ia linked to the AgrDII pheromone of S. aureus (protein)
chain: SDPVRITNPGAESLGYDSDGHEIMAVDIYVNPPRVDVFHGTPPAWSSFGNKTIWGGNEWVDDSPTRSDIEKRDKEITAYKNTLSAQQKENENKRTEAGKRLSAAIAAREKDENTLKTLRAGNADAADITRQEFRLLQAELREYGFRTEIAGYDALRLHTESRMLFADADSLRISPREARSLIEQAEKRQKDAQNADKKAADMLAEYERRKGILDTRLSELEKNGGAALAVLDAQQARLLGQQTRNDRAISEARNKLSSVTESLNTARNALTRAEQQLTQQKNTPDGKTIVSPEKFPGRSSTNHSIVVSGDPRFAGTIKITTSAVIDNRANLNYLLSHSGLDYKRNILNDRNPVVTEDVEGDKKIYNAEVAEWDKLRQRLLDARNKITSAESAVNSARNNLSARTNEQKHANDALNALLKEKENIRNQLSGINQKIAEEKRKQDELKATKDAINFTTEFLKSVSEKYGAKAEQLAREMAGQAKGKKIRNVEEALKTYEKYRADINKKINAKDRAAIAAALESVKLSDISSNLNRFSRGLGYAGKFTSLADWITEFGKAVRTENWRPLFVKTETIIAGNAATALVALVFSILTGSALGIIGYGLLMAVTGALIDESLVEKANKFWGIGVNACSSLF
modifications: Colicin attached to Pheromone peptide encoding Staphylococcus aureus AgrDII
inhibition of growth [1]: some inhibition effects

B5: Ph-SA3: Colicin Ia linked to the AgrDIII pheromone of S. aureus (protein)
chain: B2 chain with S627I, T628N, Y630D, I632L, M633L
modifications: Colicin attached to Pheromone peptide encoding Staphylococcus aureus AgrDIII
inhibition of growth [1]: some inhibition effects
